As usually defined, the MIC is the least concentration at which growth counts as inhibited. Read a low MIC as inhibition by little substance.

Converted amounts (≈) assume the structure as drawn. The source made the active and inactive calls. No cut-off for these calls is given here.

For one assay, the system named is Bacillus subtilis. Briefly: Antimicrobial activity against Bacillus subtilis UBC221 by twofold serial microbroth dilution method. Format: functional. In general terms: Broth dilution looks for growth in wells or tubes with falling amounts of substance.
The test system of assay [1] is Escherichia coli. The assay can be described thus: Antimicrobial activity against Escherichia coli DC2 by twofold serial microbroth dilution method. The format is functional.
The subject of assay [2] is Pseudomonas aeruginosa. Briefly: Antimicrobial activity against Pseudomonas aeruginosa K799 by twofold serial microbroth dilution method. Format: functional.
Assay [3] relates to Pseudomonas aeruginosa. Briefly: Antimicrobial activity against Pseudomonas aeruginosa Z61 by twofold serial microbroth dilution method. The format is functional.
Assay [4] relates to Mycobacterium avium. Briefly: Antimycobacterial activity against isoniazid-resistant Mycobacterium avium at 100 ug/disk by disk diffusion assay. The format is functional, organism-based. (A growth-free zone around the sample is the usual read-out of agar diffusion tests.)
Assay [5] deals with Staphylococcus aureus. The assay can be described thus: Antimicrobial activity against methicillin-resistant Staphylococcus aureus SAP00017 by twofold serial microbroth dilution method. The format is functional.
Assay [6] has as its system Staphylococcus aureus. The assay can be described thus: Antimicrobial activity against methicillin-susceptible Staphylococcus aureus RN4220 by twofold serial microbroth dilution method. The format is functional.
For assay [7], the system named is Mycobacterium avium. The assay can be described thus: Antimycobacterial activity against isoniazid-resistant Mycobacterium avium at 20 ug/disk by disk diffusion assay. The format is functional, organism-based.
The subject of assay [8] is Mycobacterium tuberculosis. The assay can be described thus: Antimycobacterial activity against Mycobacterium tuberculosis at 100 ug/disk by disk diffusion assay. Format: functional, organism-based.
A further assay concerns Candida albicans. The assay can be described thus: Antimicrobial activity against Candida albicans UBC54 by twofold serial microbroth dilution method. The format is functional.
For assay [9], the system named is Escherichia coli. Briefly: Antimicrobial activity against Escherichia coli UB1005 by twofold serial microbroth dilution method. Format: functional.
For assay [10], the system named is Mycobacterium avium. Briefly: Antimycobacterial activity against isoniazid-resistant Mycobacterium avium at 10 ug/disk by disk diffusion assay. Format: functional, organism-based.
Assay [11] deals with Mycobacterium tuberculosis. The assay can be described thus: Antimycobacterial activity against Mycobacterium tuberculosis at 10 ug/disk by disk diffusion assay. Format: functional, organism-based.
The test system of assay [12] is Mycobacterium tuberculosis. The assay can be described thus: Antimycobacterial activity against Mycobacterium tuberculosis at 20 ug/disk by disk diffusion assay. The format is functional, organism-based.

Consider `C=C[C@H](O)C#CC#C[C@@H](O)/C=C\CCCCCCCCOC(C)=O`, for which the MIC was 25 µg/mL (≈ 75.2 µM) in the assay on Bacillus subtilis; more than 50 µg/mL in the assay on Escherichia coli [1]; more than 50 µg/mL in the assay with Pseudomonas aeruginosa [2]; more than 50 µg/mL against Pseudomonas aeruginosa [3]; more than 50 µg/mL against Staphylococcus aureus [5]; 50 µg/mL (≈ 150 µM) with Staphylococcus aureus [6]. In addition, the MIC against Candida albicans and in the assay on Escherichia coli [9] was more than 50 µg/mL each time. The outcome (with Mycobacterium avium [4]; with Mycobacterium avium [7]; in assay [8]) was Active.
Turning to `NNC(=O)c1ccncc1`, the result in the assay with Mycobacterium avium [10], in the assay on Mycobacterium avium [4] and with Mycobacterium avium [7] was inactive. For the same compound, the result in assay [11], in [8] and in assay [12] was Active.
For `C=C[C@@H](O)C#CC#C[C@@H](O)/C=C\CCCCCCC` [FALCARINDIOL], the MIC in the assay on Bacillus subtilis was 6.25 µg/mL (≈ 24 µM); in the assay with Escherichia coli [1] it was 25 µg/mL (≈ 96 µM); against Pseudomonas aeruginosa [2], more than 50 µg/mL; against Pseudomonas aeruginosa [3] it was 50 µg/mL (≈ 192 µM); against Staphylococcus aureus [5] it was 25 µg/mL (≈ 96 µM); against Staphylococcus aureus [6], 25 µg/mL (≈ 96 µM). The MIC was 25 µg/mL (≈ 96 µM) in the assay on Candida albicans and more than 50 µg/mL against Escherichia coli [9]. In addition, the result (with Mycobacterium avium [4]; with Mycobacterium avium [7]; in assay [8]) was Active.
In the case of `C=C[C@H](O)C#CC#CC/C=C\CCCCCCC` [FALCARINOL], the MIC was 3.1 µg/mL (≈ 12.7 µM) against Bacillus subtilis; 6.25 µg/mL (≈ 25.6 µM) against Escherichia coli [1]; more than 50 µg/mL against Pseudomonas aeruginosa [2]; 6.25 µg/mL (≈ 25.6 µM) in the assay with Pseudomonas aeruginosa [3]; 3.1 µg/mL (≈ 12.7 µM) in the assay on Staphylococcus aureus [5]; 3.1 µg/mL (≈ 12.7 µM) against Staphylococcus aureus [6]. Moreover, the MIC with Candida albicans is 6.25 µg/mL (≈ 25.6 µM); in the assay on Escherichia coli [9], more than 50 µg/mL. Further, the result (with Mycobacterium avium [4]; in the assay with Mycobacterium avium [7]; in [8]; in [12]) was Active.
`COc1cccc(OC)c1C(=O)N[C@@H]1C(=O)N2[C@@H]1SC(C)(C)[C@@H]2C(=O)O` [METHICILLIN]: the MIC against Bacillus subtilis is 100 µg/mL (≈ 263 µM); with Escherichia coli [1], 1.6 µg/mL (≈ 4.21 µM); in the assay with Pseudomonas aeruginosa [2], more than 100 µg/mL; against Pseudomonas aeruginosa [3], 3.1 µg/mL (≈ 8.15 µM); in the assay with Staphylococcus aureus [6], 1.6 µg/mL (≈ 4.21 µM); in the assay on Candida albicans, more than 100 µg/mL. The MIC against Escherichia coli [9] was more than 100 µg/mL.
Take `CC[C@H](O)C#CC#C[C@@H](O)/C=C\CCCCCCCCOC(C)=O` [OPLOPANDIOL ACETATE]: the minimum inhibitory concentration (MIC) with Bacillus subtilis was 25 µg/mL; with Escherichia coli [1] it was more than 50 µg/mL; in the assay on Pseudomonas aeruginosa [2], more than 50 µg/mL; against Pseudomonas aeruginosa [3], more than 50 µg/mL; in the assay on Staphylococcus aureus [5], more than 50 µg/mL; against Staphylococcus aureus [6], 50 µg/mL. The MIC with Candida albicans and with Escherichia coli [9] was more than 50 µg/mL each time. The result (with Mycobacterium avium [4]; in the assay on Mycobacterium avium [7]; in assay [8]; in assay [12]) was Active.
In the case of `CCCCCCC/C=C\[C@H](O)C#CC#C[C@@H](O)CC` [OPLOPANDIOL], the MIC against Bacillus subtilis was 6.25 µg/mL (≈ 23.8 µM); against Escherichia coli [1] it was 6.25 µg/mL (≈ 23.8 µM); against Pseudomonas aeruginosa [2], more than 50 µg/mL; with Pseudomonas aeruginosa [3], more than 50 µg/mL; against Staphylococcus aureus [5], 6.25 µg/mL (≈ 23.8 µM); against Staphylococcus aureus [6], 6.25 µg/mL (≈ 23.8 µM). Moreover, the MIC in the assay with Candida albicans was 12.5 µg/mL (≈ 47.6 µM); against Escherichia coli [9], more than 50 µg/mL. The result (in the assay with Mycobacterium avium [4]; in assay [8]) was Active.
As to GENTAMICIN, the MIC in the assay with Bacillus subtilis is 1.25 µg/mL; against Escherichia coli [1] it was 0.6 µg/mL; in the assay on Pseudomonas aeruginosa [2] it was 1.25 µg/mL; in the assay on Pseudomonas aeruginosa [3], 0.6 µg/mL; in the assay with Staphylococcus aureus [5], more than 10 µg/mL; in the assay with Staphylococcus aureus [6], 0.6 µg/mL. Moreover, in the assay on Escherichia coli [9], the MIC was 1.25 µg/mL.

The values are drawn from ChEMBL document CHEMBL1158854, “Antimycobacterial polyynes of Devil's Club (Oplopanax horridus), a North American native medicinal plant” (1997).
